Data on two compounds can be found in patent publication EP0278686A1, “Pyridopyrimidines methods for their preparation and pharmaceutical formulations thereof” (THE WELLCOME FOUNDATION LIMITED, priority 1987, dated 1988).

Assay [1] concerns the target T1, DHFR (Rattus norvegicus, UniProt Q920D2).
T1 construct: DHFR isolated from bacterial and mammalian sources; from tissue; host or cells: rat liver
T1 sequence (Q920D2 1-187): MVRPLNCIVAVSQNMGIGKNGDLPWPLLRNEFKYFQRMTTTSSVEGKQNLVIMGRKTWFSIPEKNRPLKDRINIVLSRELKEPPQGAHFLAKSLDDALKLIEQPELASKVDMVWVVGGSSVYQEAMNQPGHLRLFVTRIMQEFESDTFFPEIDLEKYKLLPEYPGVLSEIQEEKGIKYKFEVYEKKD
Description: In vitro DHFR binding affinities (DHFR inhibition), rat liver enzyme. It counts as biochemical. The method, then:
(§1) The inhibition by the title compound of DHFR isolated from bacterial and mammalian sources was determined using known procedures [B. Roth et al., J. Med. Chem., 24, 933 (1981)].

Assay [2] relates to human T-cell line CCRF/CEM. Description: In vitro cytotoxicity in cell culture, CCRF/CEM. The conditions noted are these: read-out: ED50 (the source's name). It counts as cell-based. The method, then: (§2) The cytotoxicity of the test compounds was determined in cell culture using the human T-cell line CCRF/CEM (ATCC CCL 119) and also the human breast cancer cell line MCF-7 [H.D. Soule, et al., J.. Nat. Cancer Inst., 51, 1409 (1973)].

In assay [3] the target is T2, DHFR (Escherichia coli, UniProt P0ABQ4).
T2 construct: DHFR isolated from bacterial and mammalian sources; endogenous in cells
Description: In vitro DHFR binding affinities (DHFR inhibition), E. coli enzyme. It is filed as biochemical. On the procedure: as §1

Assay [4] deals with human breast cancer cell line MCF-7. Description: In vitro cytotoxicity in cell culture, MCF-7. It is filed as cell-based. The following applies: MCF7, Cell line MCF-7, cytotoxicity, read-out: ED50 (the source's name). On the procedure:
as §2

Usually IC50 stands for the midpoint of a concentration-inhibition curve. In the case of `COc1ccc(O)c(Cc2cnc3nc(N)nc(N)c3c2C)c1` [Compound A, 2,4-diamino-5-methyl-6-(2-hydroxy-5-methoxybenzyl)pyrido[2,3-d] pyrimidine], the results for the IC50 at DHFR [1] and on DHFR [3] were 18 nM and 8 nM, respectively. In addition, the EC50 in assay [2] stood at 400 nM; in assay [4], 790 nM.

For `COc1ccc(O)cc1Cc1cnc2nc(N)nc(N)c2c1C` [Compound B, 2,4-diamino-5-methyl-6-(5-hydroxy-2-methoxybenzyl)pyrido[2,3-d] pyrimidine], the IC50 at DHFR [1] is 12 nM; at DHFR [3], 16 nM. Besides, the EC50 was determined as 80 nM in assay [2] and 750 nM in assay [4].
